Earlier results, collected in PMC3735122 (mBio, 2013).

Test system: seasonal H3N2 isolates with R292K NA mutation
Conditions: cited from earlier work

Row | SMILES | sensitivity of seasonal H3N2 isolates with R292K mutation
1 | CCC(CC)O[C@@H]1C=C(C(=O)O)C[C@H](N)[C@H]1NC(C)=O [oseltamivir carboxylate] | significantly reduced sensitivity
2 | CCC(CC)[C@H](NC(C)=O)[C@@H]1[C@H](O)[C@@H](C(=O)O)C[C@H]1N=C(N)N [peramivir] | intermediate resistance
3 | CC(=O)N[C@H]1[C@H]([C@H](O)[C@H](O)CO)OC(C(=O)O)=C[C@@H]1N=C(N)N [zanamivir] | slightly reduced sensitivity
